Measured values taken from publication PMC8351955, “Targeting Mycobacterium tuberculosis response to environmental cues for the development of effective antitubercular drugs” (PLoS Biology, 2021).
Like-named read-outs stand apart in the source and are kept apart here.

What was measured:
[1] = test system: CDC1551(rv2390c′::GFP) reporter Mtb strain, response to high [Cl−]; experiment: microbe, parasite or virus in culture; assay type: cell-based, Mycobacterium tuberculosis; conditions: Mycobacterium tuberculosis, 144 h; for activity at 20 µM: read-out: rv2390c'::GFP validation assay NPA% at 20 µM compound
[2] = test system: CDC1551(rv1405c′::GFP) reporter Mtb strain; experiment: microbe, parasite or virus in culture; assay type: cell-based, Mycobacterium tuberculosis; conditions: Mycobacterium tuberculosis; for activity at 10 µM: read-out: rv1405c'::GFP secondary assay NPA% at 10 µM compound; for activity at 20 µM: read-out: rv1405c'::GFP secondary assay NPA% at 20 µM compound
[3] = pH 6.4, […], DMSO positive control = 100%, read-out: Primary screen rv2390c'::GFP NPA%
[4] = 10 µM, pH 6.4, 250 mM NaCl, 6 days, read-out: rv2390c'::GFP validation assay NPA% at 10 µM compound

With `COC(=O)c1sc(NS(=O)(=O)c2ccc(S(C)(=O)=O)c(F)c2)nc1C` [RU-0208648, COC(=O)C1=C(C)N=C(NS(=O)(=O)C2=CC(F)=C(C=C2)S(C)(=O)=O)S1] the activity at 10 µM [1, 3] was 36.7%, the activity at 10 µM [1, 4] was 55.2 ± 3.9% and the activity at 20 µM ([1]; pH 6.4, 250 mM NaCl, 6 days) was 38.5 ± 6.3%. It also gave an activity at 10 µM [2] of 45.2 ± 2.1% and an activity at 20 µM [2] of 13.7 ± 2.5%.

`CCNC(=O)CSc1ccc2c3c(cccc13)C(=O)c1ccccc1-2` [RU-0209034, CCNC(=O)CSC1=C2C=CC=C3C(=O)C4=C(C=CC=C4)C(C=C1)=C23] was tested, and the activity at 10 µM [1, 3] was 182%, the activity at 10 µM [1, 4] was 128 ± 15.3% and the activity at 20 µM ([1]; pH 6.4, 250 mM NaCl, 6 days) was 199 ± 7.5%. For the same compound, the activity at 10 µM [2] was 183 ± 12.7% and the activity at 20 µM [2] was 401 ± 7.5%.

`O=C(O)c1cc2ccccc2cc1NS(=O)(=O)N1CCCCC1` [RU-0210069, OC(=O)C1=C(NS(=O)(=O)N2CCCCC2)C=C2C=CC=CC2=C1] showed an activity at 10 µM [1, 3] of 44.6%, an activity at 10 µM [1, 4] of 66.4 ± 3.4% and an activity at 20 µM ([1]; pH 6.4, 250 mM NaCl, 6 days) of 58.6 ± 5.9%. The activity at 10 µM [2] was 52.8 ± 1.5% and the activity at 20 µM [2] was 31.2 ± 2.6%.

Compound `COc1ccc(Cl)cc1-c1cc(NC(=O)c2c(C)noc2C)[nH]n1` [RU-0210243, COC1=C(C=C(Cl)C=C1)C1=NNC(NC(=O)C2=C(C)ON=C2C)=C1] has an activity at 10 µM [1, 3] of 254%, an activity at 10 µM [1, 4] of 211 ± 11.6% and an activity at 20 µM ([1]; pH 6.4, 250 mM NaCl, 6 days) of 357 ± 20%. For the same compound, the activity at 10 µM [2] was 342.7 ± 3.1% and the activity at 20 µM [2] was 737 ± 25.3%.

Compound `Cc1ccc2cc(S(=O)(=O)NCCn3nc(C)c(Cl)c3C)ccc2c1` [RU-0211306, CC1=NN(CCNS(=O)(=O)C2=CC3=C(C=C2)C=C(C)C=C3)C(C)=C1Cl] has an activity at 10 µM [1, 3] of 154%, an activity at 10 µM [1, 4] of 122 ± 3.2% and an activity at 20 µM ([1]; pH 6.4, 250 mM NaCl, 6 days) of 156 ± 2.1%. It also gave an activity at 10 µM [2] of 84.4 ± 8.8% and an activity at 20 µM [2] of 99.4 ± 9.4%.

Compound `CCOC(=O)C(C)Sc1nc2c(cnn2-c2ccccc2)c(=O)[nH]1` (stereo not drawn) [RU-0212119, CCOC(=O)C(C)SC1=NC2=C(C=NN2C2=CC=CC=C2)C(=O)N1] has an activity at 10 µM [1, 3] of 34.7%, an activity at 10 µM [1, 4] of 48.1 ± 4.6% and an activity at 20 µM ([1]; pH 6.4, 250 mM NaCl, 6 days) of 40.2 ± 4.8%. For the same compound, the activity at 10 µM [2] was 33.4 ± 2.2% and the activity at 20 µM [2] was 14.5 ± 3.4%.

Work on `Cc1oc(C(=O)Nc2nnc(C(F)(F)F)[nH]2)cc1S(=O)(=O)N1CCCC1` [RU-0213804, CC1=C(C=C(O1)C(=O)NC1=NN=C(N1)C(F)(F)F)S(=O)(=O)N1CCCC1] yielded an activity at 10 µM [1, 3] of 31.2%, an activity at 10 µM [1, 4] of 54.8 ± 1.2% and an activity at 20 µM ([1]; pH 6.4, 250 mM NaCl, 6 days) of 42.3 ± 1%. The activity at 10 µM [2] was 39.8 ± 7.2% and the activity at 20 µM [2] was 21.3 ± 6%.

Compound `CCCc1ccccc1NC(N)=S` [RU-0214166, CCCC1=C(NC(N)=S)C=CC=C1] has an activity at 10 µM [1, 3] of 34.1%, an activity at 10 µM [1, 4] of 56.8 ± 5.8% and an activity at 20 µM ([1]; pH 6.4, 250 mM NaCl, 6 days) of 31.6 ± 12.3%. The activity at 10 µM [2] was 61.8 ± 0.5% and the activity at 20 µM [2] was 111 ± 15.1%.

Compound `COCCCC(=O)Nc1cccc(NC2CCCC2)c1` [RU-0215502, COCCCC(=O)NC1=CC(NC2CCCC2)=CC=C1] has an activity at 10 µM [1, 3] of 216%, an activity at 10 µM [1, 4] of 152 ± 5% and an activity at 20 µM ([1]; pH 6.4, 250 mM NaCl, 6 days) of 276 ± 16.4%. For the same compound, the activity at 10 µM [2] was 342 ± 33.3% and the activity at 20 µM [2] was 804 ± 46.8%.

`CC1(C)CC2CC(C)(CN2CC(O)COc2ccc(F)cc2Cl)C1` (stereo not drawn) [RU-0218667, CC12CC(CC(C)(C)C1)N(CC(O)COC1=C(Cl)C=C(F)C=C1)C2] gave an activity at 10 µM [1, 3] of 154%, an activity at 10 µM [1, 4] of 118 ± 1.5% and an activity at 20 µM ([1]; pH 6.4, 250 mM NaCl, 6 days) of 173 ± 5.5%. It also gave an activity at 10 µM [2] of 129 ± 4.5% and an activity at 20 µM [2] of 233 ± 4.2%.

`OC1(c2ccccc2)CCN(Cc2cnc3c(-c4ccccc4)cnn3c2)CC1` [RU-0224846, OC1(CCN(CC2=CN3N=CC(=C3N=C2)C2=CC=CC=C2)CC1)C1=CC=CC=C1] was tested, and the activity at 10 µM [1, 3] was 153%, the activity at 10 µM [1, 4] was 118 ± 10.8% and the activity at 20 µM ([1]; pH 6.4, 250 mM NaCl, 6 days) was 159 ± 15.9%. It also gave an activity at 10 µM [2] of 101 ± 18% and an activity at 20 µM [2] of 140 ± 37.5%.

`CCCC(C)c1nnc(NC(=O)c2nnc3nc(C)cc(C)n23)s1` (stereo not drawn) [RU-0225311, CCCC(C)C1=NN=C(NC(=O)C2=NN=C3N=C(C)C=C(C)N23)S1] gave an activity at 10 µM [1, 3] of 155%, an activity at 10 µM [1, 4] of 116 ± 6.7% and an activity at 20 µM ([1]; pH 6.4, 250 mM NaCl, 6 days) of 195 ± 6.5%. For the same compound, the activity at 10 µM [2] was 110 ± 9.7% and the activity at 20 µM [2] was 137 ± 16.9%.
